Values of other authors, collected in patent US20060111369A1, “Synthesis, characterization and biological action of optically active isomers of floxacins” (priority 2004, published 2006).

Assays:
[1] = according to the FDA
[2] = system: gram-negative and gram-positive bacteria; conditions: against both gram-negative and gram-positive bacteria
[3] = effects on the CNS
[4] = biological target: IKr potassium current channel (Homo sapiens, UniProt Q12809)
Chain of IKr potassium current channel (Q12809 whole entry): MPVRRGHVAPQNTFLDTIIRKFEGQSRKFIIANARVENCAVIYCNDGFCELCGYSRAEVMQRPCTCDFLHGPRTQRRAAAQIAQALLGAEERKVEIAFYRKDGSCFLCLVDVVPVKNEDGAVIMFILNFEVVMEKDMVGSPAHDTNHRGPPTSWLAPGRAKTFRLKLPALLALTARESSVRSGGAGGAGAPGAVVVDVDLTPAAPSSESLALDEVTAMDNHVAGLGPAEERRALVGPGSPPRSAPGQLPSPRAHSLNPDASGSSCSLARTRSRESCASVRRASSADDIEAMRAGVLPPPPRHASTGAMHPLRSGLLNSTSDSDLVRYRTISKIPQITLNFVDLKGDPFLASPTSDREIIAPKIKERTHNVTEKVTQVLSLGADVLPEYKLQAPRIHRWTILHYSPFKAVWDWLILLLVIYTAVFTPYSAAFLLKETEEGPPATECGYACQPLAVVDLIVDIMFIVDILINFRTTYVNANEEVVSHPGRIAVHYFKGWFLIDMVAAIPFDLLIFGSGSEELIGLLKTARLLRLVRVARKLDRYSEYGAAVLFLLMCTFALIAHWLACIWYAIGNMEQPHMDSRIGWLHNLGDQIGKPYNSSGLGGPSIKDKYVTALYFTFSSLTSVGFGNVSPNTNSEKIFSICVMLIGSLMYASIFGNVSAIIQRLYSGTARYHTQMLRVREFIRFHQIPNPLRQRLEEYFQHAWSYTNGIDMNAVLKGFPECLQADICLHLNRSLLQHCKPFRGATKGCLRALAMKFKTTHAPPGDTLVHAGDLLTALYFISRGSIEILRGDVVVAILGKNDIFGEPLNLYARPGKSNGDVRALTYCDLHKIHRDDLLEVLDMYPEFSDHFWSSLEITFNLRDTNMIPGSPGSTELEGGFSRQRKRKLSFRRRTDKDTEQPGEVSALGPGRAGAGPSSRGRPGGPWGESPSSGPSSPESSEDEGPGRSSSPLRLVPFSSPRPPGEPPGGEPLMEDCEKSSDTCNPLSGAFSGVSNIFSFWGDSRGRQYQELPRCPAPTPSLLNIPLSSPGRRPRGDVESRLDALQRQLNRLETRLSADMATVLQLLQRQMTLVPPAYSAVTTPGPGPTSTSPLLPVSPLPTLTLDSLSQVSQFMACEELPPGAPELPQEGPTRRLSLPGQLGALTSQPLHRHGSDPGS

## C[C@H]1COc2c(N3CCN(C)CC3)c(F)cc3c(=O)c(C(=O)O)cn1c23 [levofloxacin]
human, in vivo
  effect on QT interval (in words): prolong the QT interval

## C[C@@H]1CN(c2c(F)c(N)c3c(=O)c(C(=O)O)cn(C4CC4)c3c2F)C[C@H](C)N1 [sparfloxacin]
[1]
  cardiac events per 10,000 prescriptions: 145 per 10,000 prescriptions
human, in vivo
  effect on QT interval (in words): prolong the QT interval

## Cc1c(F)c(N2CCNC(C)C2)cc2c1c(=O)c(C(=O)O)cn2C1CC1 (centres unmarked) [grepafloxacin]
Clinical trials
  cardiac adverse events in clinical trials (in words): Heart-rhythm abnormalities were observed in some patients
human, in vivo
  effect on QT interval (in words): prolong the QT interval

## CC1COc2c(N3CCN(C)CC3)c(F)cc3c(=O)c(C(=O)O)cn1c23 (single isomer, unassigned; (-)) [(−)-Ofloxacin]
[2]
  activity relative to the racemate: 8-128 times

## COc1c(N2CCNC(C)C2)c(F)cc2c(=O)c(C(=O)O)cn(C3CC3)c12 (centres unmarked) [gatifloxacin]
human, in vivo
  effect on QT interval (in words): prolong the QT interval

## CN[C@@H](C)Cc1ccccc1 [MAP, methamphetamine]
[3]
  activity of S-isomer relative to R-isomer: approximately five

## COc1c(N2C[C@@H]3CCCN[C@@H]3C2)c(F)cc2c(=O)c(C(=O)O)cn(C3CC3)c12 [moxifloxacin]
[4]
  IKr blocker strength: weak
human, in vivo
  mean QT prolongation: 6 ms
  outliners (QT prolongation): 38

## CC(N)Cc1ccccc1 (centres unmarked) [AP, amphetamine]
[3]
  activity of S-isomer relative to R-isomer: approximately five

## COc1cc(N)c(Cl)cc1C(=O)NC1CCN(CCCOc2ccc(F)cc2)CC1OC (centres unmarked) [cisapride]
human, in vivo
  effect on QT interval (in words): causes QT prolongation and arrhythmias

## COc1cc(N)c(Cl)cc1C(=O)NC1CCNCC1OC (centres unmarked) [Norcisapride]
human, in vivo
  effect on QT interval (in words): does not
